From US12478617B2, “Lipidated peptide inhibitors of interleukin-23 receptor” (JANSSEN BIOTECH, INC., priority 2021, dated 2025)
Starred links: 1 amine or outer side, 2 acyl side, 3 side chain; linkers in the order of their positions; H or OH if unused. Positions of bridges follow the written chain, without caps; N, C: chain ends. Non-standard residues stand in square brackets, D forms with d. Residues, ends and D or L forms follow the SMILES beside them. Groups on a side chain read outwards from the residue. *: point of attachment. εLys(α-Octadecanedioyl) = O=C(O)CCCCCCCCCCCCCCCCC(=O)N[C@@H](CCCCN*)C(=O)O; Trp(7-Me) = Cc1cccc2c(C[C@H](N)C(=O)O)c[nH]c12; C18 diacid = O=C(O)CCCCCCCCCCCCCCCCC(=O)*; C16 diacid = O=C(O)CCCCCCCCCCCCCCC(=O)*; γGlu = O=C(O)[C@H](CCC(=O)[*:2])N[*:1]; 2Nal = N[C@@H](Cc1ccc2ccccc2c1)C(=O)O; AEF = NCCOc1ccc(C[C@H](N)C(=O)O)cc1; PEG6 = NCCOCCOCCOCCOCCOCCOCCC(=O)O; 3Pal = N[C@@H](Cc1cccnc1)C(=O)O; NMeK = CN[C@@H](CCCCN)C(=O)O; Pen = CC(C)(S)[C@H](N)C(=O)O; Thp = NC1(C(=O)O)CCOCC1; AEEA = NCCOCCOCC(=O)O; Sar = CNCC(=O)O

Target: T1, IL-23R (Homo sapiens, UniProt Q5VWK5)
T1 construct: HEK293 cells containing IL-23R, IL-12RP31 and a firefly luciferase reporter gene driven by a STAT-inducible promoter (Promega); host or cells: HEK293
T1 sequence (Q5VWK5 24-629): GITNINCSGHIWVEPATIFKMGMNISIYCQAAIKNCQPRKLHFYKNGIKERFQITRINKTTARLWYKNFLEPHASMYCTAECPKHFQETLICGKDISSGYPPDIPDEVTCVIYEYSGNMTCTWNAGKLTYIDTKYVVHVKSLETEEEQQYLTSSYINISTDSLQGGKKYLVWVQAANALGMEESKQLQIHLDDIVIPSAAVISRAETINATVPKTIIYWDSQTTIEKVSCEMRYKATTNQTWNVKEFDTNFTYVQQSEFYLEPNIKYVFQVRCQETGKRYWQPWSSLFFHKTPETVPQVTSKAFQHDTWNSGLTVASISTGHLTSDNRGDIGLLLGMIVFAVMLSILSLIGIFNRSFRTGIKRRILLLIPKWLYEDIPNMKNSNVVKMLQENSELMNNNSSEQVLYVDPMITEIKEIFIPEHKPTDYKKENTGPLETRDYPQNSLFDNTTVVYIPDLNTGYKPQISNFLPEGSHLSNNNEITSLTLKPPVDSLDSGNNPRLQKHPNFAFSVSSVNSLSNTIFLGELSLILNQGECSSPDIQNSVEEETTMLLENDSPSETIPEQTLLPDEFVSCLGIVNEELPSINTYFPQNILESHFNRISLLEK
Experiment: IL23R Reporter Assay
Type: cell-based
Text: IL-23 binding to IL-23 receptors results in the activation of the Signal Transducer and Activator of Transcription 3 (STAT3) by phosphorylation and downstream signaling events. Accordingly. the ability of the inhibitors described herein to block IL-23 action can be assessed by monitoring the status of STAT3 activation in response to IL-23. This may be accomplished in reporter cell assays or in intact cells such as peripheral blood mononuclear cells (PBMCs).
Compounds were serially diluted in 100% (v/v) DMSO) and plated using an Echo acoustic dispenser (Labcyte) into 1536-well non-treated black assay plates (Corning #9146). […] After 5 h at 37° C., 5% CO2, 95% relative humidity, cells were placed at 20° C. and treated with BioGlo reagent (Promega) according to the Manufacturer's instructions. Luminescence was measured on a Pherastar FSX (BMG LabTech).

| SMILES | IC50 |
| --- | --- |
| CC(=O)NCCCC[C@@H]1NC(=O)[C@H](Cc2c[nH]c3c(C)cccc23)NC(=O)[C@H]([C@@H](C)O)NC(=O)[C@H](CC(N)=O)NC(=O)[C@@H](NC(=O)[C@@H](CCCNC(=N)N)NC(=O)COCCOCCNC(=O)COCCOCCNC(=O)CC[C@H](NC(=O)CCCCCCCCCCCCCCC(=O)O)C(=O)O)C(C)(C)SSC(C)(C)[C@@H](C(=O)N[C@@H](Cc2ccc(OCCN)cc2)C(=O)N[C@@H](Cc2ccc3ccccc3c2)C(=O)NC2(C(=O)N[C@@H](CCCCNC(=O)COCCOCCNC(=O)COCCOCCNC(=O)CC[C@H](NC(=O)CCCCCCCCCCCCCCC(=O)O)C(=O)O)C(=O)N[C@@H](CC(N)=O)C(=O)N[C@@H](Cc3cccnc3)C(=O)N(C)CC(N)=O)CCOCC2)NC1=O [Example 37, HOC16gEPEG2PEG2-r-Pen*-N-T-7MeW-K(Ac)-Pen*-AEF-2Nal-THP-K(PEG2PEG2gEC16OH)-N-3Pya-Sar-CONH2] ({C16 diacid-γGlu-AEEA-AEEA}-[dR][Pen]NT[Trp(7-Me)]K(Ac)[Pen][AEF][2Nal][Thp]K([AEEA-AEEA-γGlu-C16 diacid])N[3Pal][Sar]-NH2; disulfide 2-7) | 0.19 nM |
| CC(=O)NCCCC[C@@H]1NC(=O)[C@H](Cc2c[nH]c3c(C)cccc23)NC(=O)[C@H]([C@@H](C)O)NC(=O)[C@H](CC(N)=O)NC(=O)[C@@H](NC(C)=O)C(C)(C)SSC(C)(C)[C@@H](C(=O)N[C@@H](Cc2ccc(OCCN)cc2)C(=O)N[C@@H](Cc2ccc3ccccc3c2)C(=O)NC2(C(=O)N[C@@H](CCCCNC(=O)COCCOCCNC(=O)COCCOCCNC(=O)CCCCCCCCCCCCCCCCC(=O)O)C(=O)N[C@@H](CC(N)=O)C(=O)N[C@@H](Cc3cccnc3)C(=O)N(C)CC(N)=O)CCOCC2)NC1=O [Example 41, MeCO-Pen*-N-T-7MeW-K(Ac)-Pen*-AEF-2Nal-THP-K(PEG2PEG2C18OH)-N-3Pya-Sar-CONH2] (Ac-[Pen]NT[Trp(7-Me)]K(Ac)[Pen][AEF][2Nal][Thp]K([AEEA-AEEA-C18 diacid])N[3Pal][Sar]-NH2; disulfide 1-6) | 0.078 nM |
| CC(=O)NCCCC[C@@H]1NC(=O)[C@H](Cc2c[nH]c3c(C)cccc23)NC(=O)[C@H]([C@@H](C)O)NC(=O)[C@H](CC(N)=O)NC(=O)[C@@H](NC(C)=O)C(C)(C)SSC(C)(C)[C@@H](C(=O)N[C@@H](Cc2ccc(OCCN)cc2)C(=O)N[C@@H](Cc2ccc3ccccc3c2)C(=O)NC2(C(=O)N[C@@H](CCCCNC(C)=O)C(=O)N[C@@H](CC(N)=O)C(=O)N[C@@H](Cc3cccnc3)C(=O)N(C)CC(=O)NCCOCCOCC(=O)NCCOCCOCC(=O)NCCCC[C@H](NC(=O)CCCCCCCCCCCCCCCCC(=O)O)C(=O)O)CCOCC2)NC1=O [Example 46, MeCO-Pen*-N-T-7MeW-K(Ac)-Pen*-AEF-2Nal-THP-K(Ac)-N-3Pya-Sar-PEG2PEG2eKC18OH-COOH] (Ac-[Pen]NT[Trp(7-Me)]K(Ac)[Pen][AEF][2Nal][Thp]K(Ac)N[3Pal][Sar][AEEA][AEEA]-{εLys(α-Octadecanedioyl)}; disulfide 1-6) | 0.26 nM |
| CC(=O)NCCCC[C@@H]1NC(=O)[C@H](Cc2c[nH]c3c(C)cccc23)NC(=O)[C@H]([C@@H](C)O)NC(=O)[C@H](CCCCNC(=O)COCCOCCNC(=O)COCCOCCNC(=O)CC[C@H](NC(=O)CCCCCCCCCCCCCCCCC(=O)O)C(=O)O)NC(=O)[C@@H](NC(=O)[C@@H](CCCNC(=N)N)NC(C)=O)C(C)(C)SSC(C)(C)[C@@H](C(=O)N[C@@H](Cc2ccc(OCCN)cc2)C(=O)N[C@@H](Cc2ccc3ccccc3c2)C(=O)NC2(C(=O)N[C@@H](CCCCNC(C)=O)C(=O)N[C@@H](CC(N)=O)C(=O)N[C@@H](Cc3cccnc3)C(=O)N(C)CC(N)=O)CCOCC2)NC1=O [Example 50, MeCO-r-Pen*-K(PEG2PEG2gEC18OH)-T-7MeW-K(Ac)-Pen*-AEF-2Nal-THP-K(Ac)-N-3Pya-Sar-CONH2] (Ac-[dR][Pen]K([AEEA-AEEA-γGlu-C18 diacid])T[Trp(7-Me)]K(Ac)[Pen][AEF][2Nal][Thp]K(Ac)N[3Pal][Sar]-NH2; disulfide 2-7) | 0.1 nM |
| CC(=O)NCCCC[C@@H]1NC(=O)[C@H](Cc2c[nH]c3c(C)cccc23)NC(=O)[C@H]([C@@H](C)O)NC(=O)[C@H](CCCCNC(=O)COCCOCCNC(=O)CC[C@H](NC(=O)CCCCCCCCCCCCCCCCC(=O)O)C(=O)O)NC(=O)[C@@H](NC(=O)[C@@H](CCCNC(=N)N)NC(C)=O)C(C)(C)SSC(C)(C)[C@@H](C(=O)N[C@@H](Cc2ccc(OCCN)cc2)C(=O)N[C@@H](Cc2ccc3ccccc3c2)C(=O)NC2(C(=O)N[C@@H](CCCCNC(C)=O)C(=O)N[C@@H](CC(N)=O)C(=O)N[C@@H](Cc3cccnc3)C(=O)N(C)CC(N)=O)CCOCC2)NC1=O [Example 52, MeCO-r-Pen*-K(PEG2gE C18OH)-T-7MeW-K(Ac)-Pen*-AEF-2Nal-THP-K(Ac)-N-3Pya-Sar-CONH2] (Ac-[dR][Pen]K([AEEA-γGlu-C18 diacid])T[Trp(7-Me)]K(Ac)[Pen][AEF][2Nal][Thp]K(Ac)N[3Pal][Sar]-NH2; disulfide 2-7) | 0.15 nM |
| CC(=O)NCCCC[C@@H]1NC(=O)[C@H](Cc2c[nH]c3c(C)cccc23)NC(=O)[C@H]([C@@H](C)O)NC(=O)[C@H](CC(N)=O)NC(=O)[C@@H](NC(=O)[C@@H](CCCNC(=N)N)NC(C)=O)C(C)(C)SSC(C)(C)[C@@H](C(=O)N[C@@H](Cc2ccc(OCCN)cc2)C(=O)N[C@@H](Cc2ccc3ccccc3c2)C(=O)NC2(C(=O)N[C@@H](CCCCNC(C)=O)C(=O)N[C@@H](CC(N)=O)C(=O)N[C@@H](Cc3cccnc3)C(=O)N(C)[C@@H](CCCCNC(=O)COCCOCCNC(=O)COCCOCCNC(=O)CC[C@H](NC(=O)CCCCCCCCCCCCCCCCC(=O)O)C(=O)O)C(N)=O)CCOCC2)NC1=O [Example 54, MeCO-r-Pen*-N-T-7MeW-K(Ac)-Pen*-AEF-2Nal-THP-K(Ac)-N-3Pya-NMeK(PEG2PEG2gEC18OH)-CONH2] (Ac-[dR][Pen]NT[Trp(7-Me)]K(Ac)[Pen][AEF][2Nal][Thp]K(Ac)N[3Pal][NMeK]([AEEA-AEEA-γGlu-C18 diacid])-NH2; disulfide 2-7) | 0.13 nM |

Stronger by IC50, values ahead:

| IC50 | SMILES |
| --- | --- |
| 0.048 nM | CC(=O)NCCCC[C@@H]1NC(=O)[C@H](Cc2c[nH]c3c(C)cccc23)NC(=O)[C@H]([C@@H](C)O)NC(=O)[C@H](CC(N)=O)NC(=O)[C@@H](NC(C)=O)C(C)(C)SSC(C)(C)[C@@H](C(=O)N[C@@H](Cc2ccc(OCCN)cc2)C(=O)N[C@@H](Cc2ccc3ccccc3c2)C(=O)NC2(C(=O)N[C@@H](CCCCNC(=O)COCCOCCNC(=O)CCOCCOCCOCCOCCOCCOCCNC(=O)CC[C@H](NC(=O)CCCCCCCCCCCCCCCCC(=O)O)C(=O)O)C(=O)N[C@@H](CC(N)=O)C(=O)N[C@@H](Cc3cccnc3)C(=O)N(C)CC(N)=O)CCOCC2)NC1=O [Example 39, MeCO-Pen*-N-T-7MeW-K(Ac)-Pen*-AEF-2Nal-THP-K(PEG2PEG6gEC18OH)-N-3Pya-Sar-CONH2] (Ac-[Pen]NT[Trp(7-Me)]K(Ac)[Pen][AEF][2Nal][Thp]K([AEEA-PEG6-γGlu-C18 diacid])N[3Pal][Sar]-NH2; disulfide 1-6) |
| 0.029 nM | CC(=O)NCCCC[C@@H]1NC(=O)[C@H](Cc2c[nH]c3c(C)cccc23)NC(=O)[C@H]([C@@H](C)O)NC(=O)[C@H](CC(N)=O)NC(=O)[C@@H](NC(C)=O)C(C)(C)SSC(C)(C)[C@@H](C(=O)N[C@@H](Cc2ccc(OCCN)cc2)C(=O)N[C@@H](Cc2ccc3ccccc3c2)C(=O)NC2(C(=O)N[C@@H](CCCCNC(=O)CCOCCOCCOCCOCCOCCOCCNC(=O)CCOCCOCCOCCOCCOCCOCCNC(=O)CC[C@H](NC(=O)CCCCCCCCCCCCCCC(=O)O)C(=O)O)C(=O)N[C@@H](CC(N)=O)C(=O)N[C@@H](Cc3cccnc3)C(=O)N(C)CC(N)=O)CCOCC2)NC1=O [Example 42, MeCO-Pen*-N-T-7MeW-K(Ac)-Pen*-AEF-2Nal-THP-K(PEG6PEG6gEC16OH)-N-3Pya-Sar-CONH2] (Ac-[Pen]NT[Trp(7-Me)]K(Ac)[Pen][AEF][2Nal][Thp]K([PEG6-PEG6-γGlu-C16 diacid])N[3Pal][Sar]-NH2; disulfide 1-6) |
| 0.049 nM | CC(=O)NCCCC[C@@H]1NC(=O)[C@H](Cc2c[nH]c3c(C)cccc23)NC(=O)[C@H]([C@@H](C)O)NC(=O)[C@H](CC(N)=O)NC(=O)[C@@H](NC(C)=O)C(C)(C)SSC(C)(C)[C@@H](C(=O)N[C@@H](Cc2ccc(OCCN)cc2)C(=O)N[C@@H](Cc2ccc3ccccc3c2)C(=O)NC2(C(=O)N[C@@H](CCCCNC(=O)CCOCCOCCOCCOCCOCCOCCNC(=O)CCOCCOCCOCCOCCOCCOCCNC(=O)CC[C@H](NC(=O)CCCCCCCCCCCCCCCCC(=O)O)C(=O)O)C(=O)N[C@@H](CC(N)=O)C(=O)N[C@@H](Cc3cccnc3)C(=O)N(C)CC(N)=O)CCOCC2)NC1=O [Example 43, MeCO-Pen*-N-T-7MeW-K(Ac)-Pen*-AEF-2Nal-THP-K(PEG6PEG6gEC18OH)-N-3Pya-Sar-CONH2] (Ac-[Pen]NT[Trp(7-Me)]K(Ac)[Pen][AEF][2Nal][Thp]K([PEG6-PEG6-γGlu-C18 diacid])N[3Pal][Sar]-NH2; disulfide 1-6) |
